The text below walks through data of PubChem BioAssay AID196 (DTP/NCI, 2004).

The assay concerns BDF1 mice, intracerebral B16 melanoma, median survival T/C. The assay is described as follows: NCI In Vivo Anticancer Drug Screen. Data for tumor model B16 Melanoma (intracerebral) in B6D2F1 (BDF1) mice. Conditions: endpoint: median survival time, higher = longer survival. As to the method:
The antitumor activity of compounds was measured in mice bearing transplantable tumors. Survival or tumor size were measured and the results are expressed as the measurement made in the treated group (T) divided by the measurement made in the vehicle treated control group (C). The tumor model used in this assay is B16 Melanoma (intracerebral) in B6D2F1 (BDF1) mice

Setting [1] is: dose: 1.0 mg/kg/injection, schedule: Q01DX009 (ip), vehicle: saline.
Setting [2] is: dose: 2.0 mg/kg/injection, schedule: Q01DX009 (ip), vehicle: saline.
Where [3] appears, read: dose: 4.0 mg/kg/injection, schedule: Q01DX009 (ip), vehicle: saline.
Setting [4] is: dose: 8.0 mg/kg/injection, schedule: Q01DX009 (ip), vehicle: saline.
Where [5] appears, read: dose: 25.0 mg/kg/injection, schedule: Q01DX009 (ip), vehicle: saline.
Setting [6] is: dose: 100.0 mg/kg/injection, schedule: Q01DX009 (ip), vehicle: saline.
[7] abbreviates: dose: 200.0 mg/kg/injection, schedule: Q01DX009 (ip), vehicle: saline.
The mark [8] stands for this setting: dose: 16.0 mg/kg/injection, schedule: Q01DX005 (ip), vehicle: saline with Tween-80.
Where [9] appears, read: dose: 32.0 mg/kg/injection, schedule: Q01DX005 (ip), vehicle: saline with Tween-80.
Setting [10] is: dose: 64.0 mg/kg/injection, schedule: Q01DX005 (ip), vehicle: saline with Tween-80.
The mark [11] stands for this setting: dose: 128.0 mg/kg/injection, schedule: Q01DX005 (ip), vehicle: saline with Tween-80.
Setting [12] is: dose: 128.0 mg/kg/injection, schedule: Q01DX009 (ip), vehicle: Klucel (hydroxypropylcellulose) (HPC).
The mark [13] stands for this setting: dose: 256.0 mg/kg/injection, schedule: Q01DX009 (ip), vehicle: Klucel (hydroxypropylcellulose) (HPC).
Setting [14] is: dose: 128.0 mg/kg/injection, schedule: Q01DX005 (ip), vehicle: saline.
Where [15] appears, read: dose: 256.0 mg/kg/injection, schedule: Q01DX005 (ip), vehicle: saline.
[16] abbreviates: dose: 512.0 mg/kg/injection, schedule: Q01DX005 (ip), vehicle: saline.

The structures appear in SMILES notation. Where “and” joins values, the source holds several entries; their conditions need not be identical. Equal entries are not always repeated. Inconclusive results and toxic doses are left out.

As for `S=P(N1CC1)(N1CC1)N1CC1`, the T/C was 108 % of control (2×) and 113 % of control under setting [1]; 100 % of control under setting [2]; 120 % of control and 122 % of control under setting [3]; 172 % of control under setting [4].
Consider `COc1cccc2c1C(=O)c1c(O)c3c(c(O)c1C2=O)C[C@@](O)(C(=O)CO)C[C@@H]3OC1CC(N)C(O)C(C)O1` (stereo partly specified), for which the T/C is, setting by setting: (dose: 0.13 mg/kg/injection, schedule: Q01DX009 (ip), vehicle: saline) 91 % of control; (dose: 0.25 mg/kg/injection, schedule: Q01DX009 (ip), vehicle: saline) 108 % of control; (dose: 0.25 mg/kg/injection, schedule: Q03HX008 (ip), vehicle: saline) 100 % of control; (dose: 0.5 mg/kg/injection, schedule: Q01DX009 (ip), vehicle: saline) 112 % of control; (dose: 0.5 mg/kg/injection, schedule: Q03HX008 (ip), vehicle: saline) 100 % of control; under setting [1], 104 % of control. Besides, the T/C was 107 % of control (dose: 1.0 mg/kg/injection, schedule: Q03HX008 (ip), vehicle: saline); 108 % of control under setting [2]; 96 % of control (dose: 2.0 mg/kg/injection, schedule: Q03HX008 (ip), vehicle: saline); 116 % of control under setting [3].
For the compound `CN(C)CC(=O)c1ccc(O)c(O)c1`, the T/C is 96 % of control (dose: 100.0 mg/kg/injection, schedule: Q01DX005 (ip), vehicle: saline); 124 % of control and 97 % of control (dose: 200.0 mg/kg/injection, schedule: Q01DX005 (ip), vehicle: saline); 119 % of control (dose: 400.0 mg/kg/injection, schedule: Q01DX005 (ip), vehicle: saline); 90 % of control and 108 % of control (dose: 800.0 mg/kg/injection, schedule: Q01DX005 (ip), vehicle: saline).
`O=C1C=CN(C2OC(CO)C(O)C2O)C(=O)C1` (stereo unspecified): the T/C was 90 % of control (dose: 12.5 mg/kg/injection, schedule: Q01DX009 (ip), vehicle: saline); 97 % of control under setting [5]; 97 % of control (dose: 50.0 mg/kg/injection, schedule: Q01DX009 (ip), vehicle: saline); 100 % of control under setting [6]; 111 % of control under setting [7]; 107 % of control (dose: 400.0 mg/kg/injection, schedule: Q01DX009 (ip), vehicle: saline).
`CN(C)c1nc(N(C)C)nc(N(C)C)n1`: the T/C (dose: 100.0 mg/kg/injection, schedule: Q01DX005 (ip), vehicle: saline with Tween-80) is 91 % of control.
Regarding `c1ccc([C@H]2CN3CCSC3=N2)cc1`, the T/C by setting is: (dose: 5.0 mg/kg/injection, schedule: Q01DX009 (ip), vehicle: saline) 98 % of control and 105 % of control; (dose: 10.0 mg/kg/injection, schedule: Q01DX005 (ip), vehicle: saline) 120 % of control and 93 % of control; (dose: 10.0 mg/kg/injection, schedule: Q01DX009 (ip), vehicle: saline) 89 % of control and 94 % of control and 98 % of control; (dose: 20.0 mg/kg/injection, schedule: Q01DX005 (ip), vehicle: saline) 96 % of control and 112 % of control; (dose: 20.0 mg/kg/injection, schedule: Q01DX009 (ip), vehicle: saline) 87 % of control and 89 % of control and 98 % of control; (dose: 40.0 mg/kg/injection, schedule: Q01DX005 (ip), vehicle: saline) 93 % of control and 108 % of control. Also, where the note is “dose: 40.0 mg/kg/injection, schedule: Q01DX009 (ip), vehicle: saline”, the T/C is 103 % of control.
Turning to `O=CC(NC(=O)N(CCCl)N=O)C(O)C(O)C(O)CO` (stereo unspecified), the T/C under setting [1] was 97 % of control; the T/C under setting [2] was 99 % of control; the T/C under setting [3] is 111 % of control; the T/C (dose: 7.5 mg/kg/injection, schedule: Q01DX001 (ip), vehicle: saline with Tween-80) is 92 % of control; the T/C under setting [4] was 117 % of control; the T/C (dose: 15.0 mg/kg/injection, schedule: Q01DX001 (ip), vehicle: saline with Tween-80) was 119 % of control. Moreover, the T/C by setting is: (dose: 17.8 mg/kg/injection, schedule: Q01DX001 (ip), vehicle: Klucel (hydroxypropylcellulose) (HPC)) 120 % of control; (dose: 26.7 mg/kg/injection, schedule: Q01DX001 (ip), vehicle: Klucel (hydroxypropylcellulose) (HPC)) 118 % of control; (dose: 30.0 mg/kg/injection, schedule: Q01DX001 (ip), vehicle: saline with Tween-80) 103 % of control.
Regarding `CC/C(=C(/CC)c1ccc(O)cc1)c1ccc(O)cc1`, the T/C by setting is: (dose: 8.0 mg/kg/injection, schedule: Q01DX009 (ip), vehicle: Klucel (hydroxypropylcellulose) (HPC)) 106 % of control; under setting [8], 100 % of control; (dose: 16.0 mg/kg/injection, schedule: Q01DX009 (ip), vehicle: Klucel (hydroxypropylcellulose) (HPC)) 102 % of control; under setting [9], 99 % of control and 111 % of control; (dose: 32.0 mg/kg/injection, schedule: Q01DX009 (ip), vehicle: Klucel (hydroxypropylcellulose) (HPC)) 95 % of control; under setting [10], 96 % of control and 103 % of control. The T/C by setting is: (dose: 64.0 mg/kg/injection, schedule: Q01DX009 (ip), vehicle: Klucel (hydroxypropylcellulose) (HPC)) 106 % of control; under setting [11], 88 % of control and 102 % of control; under setting [12], 104 % of control; under setting [13], 111 % of control.
Turning to `C#CCN(C)/N=N/c1nc[nH]c1C(N)=O`, the T/C was 107 % of control under setting [8]; 104 % of control under setting [9]; 110 % of control under setting [10]; 109 % of control under setting [11]; 100 % of control (dose: 256.0 mg/kg/injection, schedule: Q01DX005 (ip), vehicle: saline with Tween-80).
Regarding `Nc1nc2c(c(=O)[nH]1)N(C=O)C(CNc1ccc(C(=O)N[C@@H](CCC(=O)O)C(=O)O)cc1)CN2` (stereo partly specified), the T/C by setting is: under setting [14], 102 % of control; under setting [15], 95 % of control; under setting [16], 87 % of control.
`COCC(O)Cn1ccnc1[N+](=O)[O-]` (stereo unspecified): the T/C by setting is: under setting [12], 89 % of control; under setting [13], 86 % of control.
Regarding `CS(C)=O`, the T/C is, setting by setting: (dose: 1000.0 mg/kg/injection, schedule: Q01DX005 (ip), vehicle: saline) 103 % of control; (dose: 2000.0 mg/kg/injection, schedule: Q01DX005 (ip), vehicle: saline) 97 % of control and 100 % of control and 108 % of control; (dose: 4000.0 mg/kg/injection, schedule: Q01DX005 (ip), vehicle: saline) 101 % of control and 109 % of control and 114 % of control.
`CC(=O)OCC1C(=O)OCC1C(=O)N1Cc2cc3ccccc3nc2C1` (stereo unspecified): the T/C is 111 % of control (dose: 8.0 mg/kg/injection, schedule: Q01DX009 (ip), vehicle: saline with Tween-80); 99 % of control (dose: 16.0 mg/kg/injection, schedule: Q01DX009 (ip), vehicle: saline with Tween-80); 103 % of control (dose: 32.0 mg/kg/injection, schedule: Q01DX009 (ip), vehicle: saline with Tween-80); 95 % of control (dose: 64.0 mg/kg/injection, schedule: Q01DX009 (ip), vehicle: saline with Tween-80); 93 % of control (dose: 128.0 mg/kg/injection, schedule: Q01DX009 (ip), vehicle: saline with Tween-80).
Turning to `Nc1n[nH]c(N)n1`, the T/C by setting is: under setting [14], 95 % of control and 111 % of control; under setting [15], 97 % of control and 106 % of control; under setting [16], 116 % of control and 103 % of control; (dose: 1024.0 mg/kg/injection, schedule: Q01DX005 (ip), vehicle: saline) 118 % of control and 93 % of control.
`CNNCc1ccc(C(=O)NC(C)C)cc1`: the T/C by setting is: under setting [5], 120 % of control; (dose: 75.0 mg/kg/injection, schedule: Q01DX009 (ip), vehicle: water) 154 % of control; under setting [6], 163 % of control; (dose: 150.0 mg/kg/injection, schedule: Q01DX009 (ip), vehicle: water) 163 % of control; under setting [7], 168 % of control and 170 % of control; (dose: 300.0 mg/kg/injection, schedule: Q01DX009 (ip), vehicle: water) 100 % of control.
As for `F`, the T/C reads like this: (dose: 16.0 mg/kg/injection, schedule: Q01DX005 (ip), vehicle: saline) 102 % of control; (dose: 32.0 mg/kg/injection, schedule: Q01DX005 (ip), vehicle: saline) 100 % of control.
